Earlier results in paper PMC140124 (Biological Procedures Online, 1998).
Like-named read-outs stand apart in the source and are kept apart here. Blank lines part the entries; values can stand above or below the molecule they belong to.

change of absorption clearance (presence of peptidase inhibitors, ref [1]): did not increase
Molecule: O=S1(=O)OC(c2ccc(O)cc2)(c2ccc(O)cc2)c2ccccc21 [phenol red]

Molecule: L-tyrosyl-D-arginine [D-KTP]
absorption clearance (the overall transport clearance) (rat everted jejunum, peptidase-resistant isomer, ref [2]): 0.516 µL/min/cm

Molecule: L-tyrosyl-L-arginine [KTP]
appearance on the serosal side (absence of peptidase inhibitors, ref [2]): did not appear on the serosal side
appearance on the serosal side (presence of peptidase inhibitors such as o-phenanthrolin, tryptophan hydroxamate and bestatin, ref [2]): appeared on the serosal side
